Assay [1] has as its target T1, Heme-containing sGC (recombinant soluble guanylate cyclase) (Rattus norvegicus, UniProt P20595).
T1 construct: made in house
T1 sequence (P20595 1-619): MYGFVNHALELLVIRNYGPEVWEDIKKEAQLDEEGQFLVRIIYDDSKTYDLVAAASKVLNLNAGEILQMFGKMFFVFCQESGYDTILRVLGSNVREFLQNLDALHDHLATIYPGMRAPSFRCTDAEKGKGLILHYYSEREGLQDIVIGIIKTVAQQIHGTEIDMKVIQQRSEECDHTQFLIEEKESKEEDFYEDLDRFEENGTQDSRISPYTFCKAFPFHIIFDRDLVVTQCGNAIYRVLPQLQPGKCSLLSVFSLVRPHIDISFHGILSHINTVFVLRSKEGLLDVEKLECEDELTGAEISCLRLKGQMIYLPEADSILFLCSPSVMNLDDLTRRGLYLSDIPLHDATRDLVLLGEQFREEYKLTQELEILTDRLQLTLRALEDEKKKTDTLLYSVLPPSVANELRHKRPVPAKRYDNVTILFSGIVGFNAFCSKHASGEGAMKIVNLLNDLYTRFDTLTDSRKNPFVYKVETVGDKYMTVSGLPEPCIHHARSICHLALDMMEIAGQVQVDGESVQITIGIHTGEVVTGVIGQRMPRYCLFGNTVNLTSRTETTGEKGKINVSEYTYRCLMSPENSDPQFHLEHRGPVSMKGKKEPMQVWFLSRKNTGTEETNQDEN
T1 sequence (P19686 1-690 partner): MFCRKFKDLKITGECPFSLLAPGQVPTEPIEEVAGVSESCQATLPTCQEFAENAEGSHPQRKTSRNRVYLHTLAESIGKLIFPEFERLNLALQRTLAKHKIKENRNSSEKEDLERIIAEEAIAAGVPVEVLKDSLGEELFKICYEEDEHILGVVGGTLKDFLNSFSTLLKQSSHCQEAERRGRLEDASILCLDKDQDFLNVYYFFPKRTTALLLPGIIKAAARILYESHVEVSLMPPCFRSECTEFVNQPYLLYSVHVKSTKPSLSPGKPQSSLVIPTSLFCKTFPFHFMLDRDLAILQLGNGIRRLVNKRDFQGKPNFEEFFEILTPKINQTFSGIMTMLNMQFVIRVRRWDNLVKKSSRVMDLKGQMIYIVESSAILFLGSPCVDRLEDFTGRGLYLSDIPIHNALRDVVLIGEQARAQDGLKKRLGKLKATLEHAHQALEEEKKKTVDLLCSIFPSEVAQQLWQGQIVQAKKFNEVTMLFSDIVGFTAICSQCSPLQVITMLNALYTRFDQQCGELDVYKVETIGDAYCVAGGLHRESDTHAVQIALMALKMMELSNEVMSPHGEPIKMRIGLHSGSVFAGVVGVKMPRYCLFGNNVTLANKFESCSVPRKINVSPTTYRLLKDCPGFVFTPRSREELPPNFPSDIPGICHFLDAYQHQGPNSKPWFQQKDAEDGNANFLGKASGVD
The assay can be described thus: Stimulation of recombinant soluble guanylate cyclase (sGC) in vitro, heme-containing enzyme. It counts as biochemical. The source says: Hoenicka, E. M. Becker, H. Apeler, T. Sirichoke, H. Schroeder, R. Gerzer and J.-P. Stasch, “Purified soluble guanylyl cyclase expressed in a baculovirus/Sf9 system: Stimulation by YC-1, nitric oxide, and carbon oxide”, J. Mol. Med. 77 (1999), 14-23. The heme-free guanylate cyclase is obtained by adding Tween 20 to the sample buffer (0.5% in the final concentration).
The activation of sGC by a test substance is reported as n-fold stimulation of the basal activity.

Assay [2] has as its system saphenous artery rings. The assay can be described thus: Vasorelaxant effect in vitro (phenylephrine-contracted artery rings). It counts as cell-based, Rabbits. The following applies: rabbit saphenous artery rings, contraction induced by phenylephrine. As to the method:
Rabbits are anesthetized and sacrificed by intravenous injection of thiopental sodium (about 50 mg/kg) and exsanguinated. The saphenous artery is removed and divided into rings 3 mm wide. The rings are mounted singly on in each case a pair of triangular hooks open at the end and made of 0.3 mm-thick special wire (Remanium®). Each ring is placed under an initial tension in 5 ml organ baths with Krebs-Henseleit solution which is at 37° C., is gassed with 95% O2/5% CO2 and has the following composition: NaCl 119 mM; KCl 4.8 mM; CaCl2×2H2O 1 mM; MgSO4×7H2O 1.4 mM; KH2PO4 1.2 mM; NaHCO3 25 mM; glucose 10 mM; bovine serum albumin 0.001%. The force of contraction is detected with Statham UC2 cells, amplified and digitized via A/D converters (DAS-1802 HC, Keithley Instruments, Munich) and recorded in parallel on chart recorders. Contractions are induced by addition of phenylephrine.
After several (generally 4) control cycles, the substance to be investigated is added in each further run in increasing dosage, and the height of the contraction achieved under the influence of the test substance is compared with the height of the contraction reached in the last preceding run. The concentration necessary to reduce the contraction reached in the preceding control by 50% is calculated from this (IC50). The standard application volume is 5 μl. The proportion of DMSO in the bath solution corresponds to 0.1%.

The structures appear in SMILES notation. pIC50: −log10 of the molar value.

As to `CC(C)(C)c1ccc(COc2ccccc2/C=C/C(CCc2ccc(-c3nnn[nH]3)cc2)Cc2ccc(C(=O)O)cc2)cc1` (single isomer, unassigned) [Example 6, 4-((3E)-4-{2-[(4-tert-Butylbenzyl)oxy]phenyl}-2-{2-[4-(1H-tetrazol-5-yl)phenyl]ethyl}but-3-en-1-yl)benzoic acid], the “Stimulation (n-fold) Heme-containing sGC Basal” value was determined as 1.9 n-fold in assay [1] (0.001 μM Example 6); 5.1 n-fold in assay [1] (0.01 μM Example 6); 20.2 n-fold in assay [1] (0.1 μM Example 6); 29.5 n-fold in assay [1] (1 μM Example 6); 42.1 n-fold in assay [1] (10 μM Example 6). For the same molecule, the “Stimulation (n-fold) Heme-containing sGC +0.1 μM DEA/NO” value is recorded as 62.0 n-fold in assay [1] (0.001 μM Example 6 + 0.1 μM DEA/NO); 66.0 n-fold in assay [1] (0.01 μM Example 6 + 0.1 μM DEA/NO); 80.0 n-fold in assay [1] (0.1 μM Example 6 + 0.1 μM DEA/NO); 96.2 n-fold in assay [1] (1 μM Example 6 + 0.1 μM DEA/NO); 99.9 n-fold in assay [1] (10 μM Example 6 + 0.1 μM DEA/NO). The “Stimulation (n-fold) Heme-containing sGC +10 μM ODQ” value in assay [1] (0.001 μM Example 6 + 10 μM ODQ) is 4.8 n-fold; in assay [1] (0.01 μM Example 6 + 10 μM ODQ), 25.7 n-fold; in assay [1] (0.1 μM Example 6 + 10 μM ODQ) it was 102.7 n-fold; in assay [1] (1 μM Example 6 + 10 μM ODQ), 125.8 n-fold; in assay [1] (10 μM Example 6 + 10 μM ODQ), 135.0 n-fold. Also, the “Effect of combination with the NO donor DEA/NO on sGC stimulation” value in assay [1] (combination of Example 6 and DEA/NO) is “no synergistic effect”. Also, the “Effect of the heme-dependent sGC inhibitor ODQ on sGC activation” value in assay [1] (with ODQ, effect in fact increased) was “not blocked”. The molecule also had a pIC50 in assay [2] of 6.92.

The pIC50 is the IC50 on a negative log10 scale, so that one unit is a factor of ten.

(Values after patent US8183271B2, “Tetrazole derivatives and their use for the treatment of cardiovascular diseases” (Bayer Intellectual Property GmbH, priority 2005, dated 2012).)
